Assay results reported in ChEMBL document CHEMBL1139487, “Discovery of corticotropin releasing factor 2 receptor selective sauvagine analogues for treatment of skeletal muscle atrophy” (J Med Chem, 2005).

Tests used:
[1] = biological target: Corticotropin-releasing factor receptor 2 (Mus musculus, UniProt Q60748); assay: In vitro effective concentration for mouse corticotropin releasing factor 2 receptor
[2] = biological target: Corticotropin-releasing factor receptor 2 (Mus musculus) (UniProt Q60748); assay: In vitro agonistic activity against mouse corticotropin releasing factor 2 receptor; assay type: functional
Sequence of Corticotropin-releasing factor receptor 2 (Mus musculus) (Q60748 whole entry): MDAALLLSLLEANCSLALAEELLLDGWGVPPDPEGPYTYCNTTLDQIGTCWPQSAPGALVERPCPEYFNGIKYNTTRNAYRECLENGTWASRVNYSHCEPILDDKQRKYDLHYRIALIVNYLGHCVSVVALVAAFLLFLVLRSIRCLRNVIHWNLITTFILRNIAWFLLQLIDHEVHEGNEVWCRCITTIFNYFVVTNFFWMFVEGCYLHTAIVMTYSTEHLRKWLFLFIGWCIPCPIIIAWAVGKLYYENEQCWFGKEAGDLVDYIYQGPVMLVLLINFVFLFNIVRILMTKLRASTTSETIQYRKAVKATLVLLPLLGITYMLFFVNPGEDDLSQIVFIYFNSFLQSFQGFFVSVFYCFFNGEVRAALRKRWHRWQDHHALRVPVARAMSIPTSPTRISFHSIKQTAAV

[3] = biological target: T1, Corticotropin-releasing factor receptor 1 (Mus musculus, UniProt P35347); assay: In vitro effective concentration for mouse corticotropin releasing factor 1 receptor
T1 sequence (P35347 whole entry): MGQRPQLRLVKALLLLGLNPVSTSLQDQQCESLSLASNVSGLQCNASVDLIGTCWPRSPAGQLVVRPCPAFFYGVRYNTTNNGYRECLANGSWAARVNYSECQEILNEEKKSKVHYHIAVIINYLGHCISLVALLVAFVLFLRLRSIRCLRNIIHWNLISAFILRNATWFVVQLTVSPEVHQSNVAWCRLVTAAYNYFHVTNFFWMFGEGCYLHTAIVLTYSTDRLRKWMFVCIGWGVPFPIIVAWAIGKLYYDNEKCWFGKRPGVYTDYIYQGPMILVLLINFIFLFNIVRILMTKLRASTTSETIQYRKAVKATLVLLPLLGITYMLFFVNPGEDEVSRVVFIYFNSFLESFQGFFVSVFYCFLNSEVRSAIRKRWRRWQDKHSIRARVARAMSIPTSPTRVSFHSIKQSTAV

Mus musculus = organism: Mus musculus; assay: Selectivity ratio of EC50s for mouse corticotropin releasing factor receptors 1 and 2
[4] = biological target: T2, Corticotropin-releasing factor receptor 1 (Mus musculus) (UniProt P35347); assay: In vitro agonistic activity against mouse corticotropin releasing factor 1 receptor; assay type: functional
T2 sequence (whole entry): T1 sequence (P35347 whole entry)

Sequence of Corticotropin-releasing factor receptor 2 (Q60748 whole entry): as the sequence (Q60748 whole entry) above

SMILES	EC50 [1]	Emax [2]	EC50 [3]	Selectivity (Mus musculus)	Emax [4]
CC[C@H](C)[C@H](NC(=O)[C@@H](NC(=O)[C@H](CC(=O)O)NC(=O)[C@H](CC(C)C)NC(=O)[C@H](CC(C)C)NC(=O)[C@H](CC(C)C)NC(=O)[C@H](CCCN=C(N)N)NC(=O)[C@H](CC(N)=O)NC(=O)[C@H](CC(N)=O)NC(=O)[C@H](C)NC(=O)[C@H](C)NC(=O)[C@H](CCC(N)=O)NC(=O)[C@H](CCC(N)=O)NC(=O)[C@H](CCCCN)NC(=O)[C@H](CCC(=O)O)NC(=O)[C@H](CCCCN)NC(=O)[C@H](CCC(=O)O)NC(=O)[C@H](CCC(N)=O)NC(=O)[C@H](CCCCN)NC(=O)[C@H](CCC(=O)O)NC(=O)[C@@H](NC(=O)[C@H](CCC(=O)O)NC(=O)[C@@H](NC(=O)[C@H](CCSC)NC(=O)[C@H](CCCCN)NC(=O)[C@H](CCCN=C(N)N)NC(=O)[C@H](CC(C)C)NC(=O)[C@H](CC(C)C)NC(=O)[C@H](Cc1ccccc1)NC(=O)[C@H](Cc1c[nH]cn1)NC(=O)[C@@H]1CCCN1C(=O)[C@H](CC(C)C)NC(=O)[C@H](CC(=O)O)NC(=O)[C@@H](NC(=O)[C@H](CO)NC(=O)[C@@H](NC(=O)[C@@H]1CCCN1C(=O)[C@@H]1CCCN1C(=O)CNC(=O)[C@@H]1CCC(=O)N1)[C@@H](C)CC)[C@@H](C)CC)[C@@H](C)CC)[C@@H](C)CC)[C@@H](C)O)C(=O)O	7.8 nM	98%	80.9 nM	10	100%
CC[C@H](C)[C@H](NC(=O)[C@@H](NC(=O)[C@H](CC(=O)O)NC(=O)[C@H](CC(C)C)NC(=O)[C@H](CC(C)C)NC(=O)[C@H](CC(C)C)NC(=O)[C@H](CCCN=C(N)N)NC(=O)[C@H](CC(N)=O)NC(=O)[C@H](CC(N)=O)NC(=O)[C@H](C)NC(=O)[C@H](C)NC(=O)[C@H](CCC(N)=O)NC(=O)[C@H](CCC(N)=O)NC(=O)[C@H](CCCCN)NC(=O)[C@H](CCC(=O)O)NC(=O)[C@H](CCCCN)NC(=O)[C@H](CCC(=O)O)NC(=O)[C@H](CCC(N)=O)NC(=O)[C@H](CCCCN)NC(=O)[C@H](CCC(=O)O)NC(=O)[C@@H](NC(=O)[C@H](CCC(=O)O)NC(=O)[C@@H](NC(=O)[C@H](CCSC)NC(=O)[C@H](CCCCN)NC(=O)[C@H](CCCN=C(N)N)NC(=O)[C@H](CC(C)C)NC(=O)[C@H](CC(C)C)NC(=O)[C@H](Cc1ccc(O)cc1)NC(=O)[C@H](C)NC(=O)[C@@H]1CCCN1C(=O)[C@H](CC(C)C)NC(=O)[C@H](CC(=O)O)NC(=O)[C@@H](NC(=O)[C@H](CO)NC(=O)[C@@H](NC(=O)[C@@H]1CCCN1C(=O)[C@@H]1CCCN1C(=O)CNC(=O)[C@@H]1CCC(=O)N1)[C@@H](C)CC)[C@@H](C)CC)[C@@H](C)CC)[C@@H](C)CC)[C@@H](C)O)C(=O)O	20.2 nM	98%	606 nM	30	95%
CC[C@H](C)[C@H](NC(=O)[C@@H](NC(=O)[C@H](CC(=O)O)NC(=O)[C@H](CC(C)C)NC(=O)[C@H](CC(C)C)NC(=O)[C@H](CC(C)C)NC(=O)[C@H](CCCN=C(N)N)NC(=O)[C@H](CC(N)=O)NC(=O)[C@H](CC(N)=O)NC(=O)[C@H](C)NC(=O)[C@H](C)NC(=O)[C@H](CCC(N)=O)NC(=O)[C@H](CCC(N)=O)NC(=O)[C@H](CCCCN)NC(=O)[C@H](CCC(=O)O)NC(=O)[C@H](CCCCN)NC(=O)[C@H](CCC(=O)O)NC(=O)[C@H](CCC(N)=O)NC(=O)[C@H](CCCCN)NC(=O)[C@H](CCC(=O)O)NC(=O)[C@@H](NC(=O)[C@H](CCC(=O)O)NC(=O)[C@@H](NC(=O)[C@H](CCSC)NC(=O)[C@H](CCCCN)NC(=O)[C@H](CCCN=C(N)N)NC(=O)[C@H](CC(C)C)NC(=O)[C@H](CC(C)C)NC(=O)[C@H](Cc1ccc(O)cc1)NC(=O)[C@H](CC(N)=O)NC(=O)[C@@H]1CCCN1C(=O)[C@H](CC(C)C)NC(=O)[C@H](CC(=O)O)NC(=O)[C@@H](NC(=O)[C@H](CO)NC(=O)[C@@H](NC(=O)[C@@H]1CCCN1C(=O)[C@@H]1CCCN1C(=O)CNC(=O)[C@@H]1CCC(=O)N1)[C@@H](C)CC)[C@@H](C)CC)[C@@H](C)CC)[C@@H](C)CC)[C@@H](C)O)C(=O)O	21.6 nM	93%	220 nM	10	100%
CC[C@H](C)[C@H](NC(=O)[C@@H](NC(=O)[C@H](CC(=O)O)NC(=O)[C@H](CC(C)C)NC(=O)[C@H](CC(C)C)NC(=O)[C@H](CC(C)C)NC(=O)[C@H](CCCN=C(N)N)NC(=O)[C@H](CC(N)=O)NC(=O)[C@H](CC(N)=O)NC(=O)[C@H](C)NC(=O)[C@H](C)NC(=O)[C@H](CCC(N)=O)NC(=O)[C@H](CCC(N)=O)NC(=O)[C@H](CCCCN)NC(=O)[C@H](CCC(=O)O)NC(=O)[C@H](CCCCN)NC(=O)[C@H](CCC(=O)O)NC(=O)[C@H](CCC(N)=O)NC(=O)[C@H](CCCCN)NC(=O)[C@H](CCC(=O)O)NC(=O)[C@@H](NC(=O)[C@H](CCC(=O)O)NC(=O)[C@@H](NC(=O)[C@H](CCSC)NC(=O)[C@H](CCCCN)NC(=O)[C@H](CCCN=C(N)N)NC(=O)[C@H](CC(C)C)NC(=O)[C@H](CC(C)C)NC(=O)[C@H](Cc1ccccc1)NC(=O)[C@@H](NC(=O)[C@@H]1CCCN1C(=O)[C@H](CC(C)C)NC(=O)[C@H](CC(=O)O)NC(=O)[C@@H](NC(=O)[C@H](CO)NC(=O)[C@@H](NC(=O)[C@@H]1CCCN1C(=O)[C@@H]1CCCN1C(=O)CNC(=O)[C@@H]1CCC(=O)N1)[C@@H](C)CC)[C@@H](C)CC)[C@@H](C)CC)[C@@H](C)CC)[C@@H](C)CC)[C@@H](C)O)C(=O)O	12.8 nM	100%	756 nM	59	83%
CC[C@H](C)[C@H](NC(=O)[C@@H](NC(=O)[C@H](CC(=O)O)NC(=O)[C@H](CC(C)C)NC(=O)[C@H](CC(C)C)NC(=O)[C@H](CC(C)C)NC(=O)[C@H](CCCN=C(N)N)NC(=O)[C@H](CC(N)=O)NC(=O)[C@H](CC(N)=O)NC(=O)[C@H](C)NC(=O)[C@H](C)NC(=O)[C@H](CCC(N)=O)NC(=O)[C@H](CCC(N)=O)NC(=O)[C@H](CCCCN)NC(=O)[C@H](CCC(=O)O)NC(=O)[C@H](CCCCN)NC(=O)[C@H](CCC(=O)O)NC(=O)[C@H](CCC(N)=O)NC(=O)[C@H](CCCCN)NC(=O)[C@H](CCC(=O)O)NC(=O)[C@@H](NC(=O)[C@H](CCC(=O)O)NC(=O)[C@@H](NC(=O)[C@H](CCSC)NC(=O)[C@H](CCCCN)NC(=O)[C@H](CCCN=C(N)N)NC(=O)[C@H](CC(C)C)NC(=O)[C@H](CC(C)C)NC(=O)[C@H](Cc1c[nH]c2ccccc12)NC(=O)[C@H](CC(C)C)NC(=O)[C@@H]1CCCN1C(=O)[C@H](CC(C)C)NC(=O)[C@H](CC(=O)O)NC(=O)[C@@H](NC(=O)[C@H](CO)NC(=O)[C@@H](NC(=O)[C@@H]1CCCN1C(=O)[C@@H]1CCCN1C(=O)CNC(=O)[C@@H]1CCC(=O)N1)[C@@H](C)CC)[C@@H](C)CC)[C@@H](C)CC)[C@@H](C)CC)[C@@H](C)O)C(=O)O	4.8 nM	96%	98.4 nM	20	100%

The remaining compounds from weak to strong by EC50 [1], led by results:

EC50 [1]	Emax [2]	EC50 [3]	Selectivity (Mus musculus)	Emax [4]	SMILES
4.7 nM	95%	94.6 nM	20	100%	CC[C@H](C)[C@H](NC(=O)[C@@H](NC(=O)[C@H](CC(=O)O)NC(=O)[C@H](CC(C)C)NC(=O)[C@H](CC(C)C)NC(=O)[C@H](CC(C)C)NC(=O)[C@H](CCCN=C(N)N)NC(=O)[C@H](CC(N)=O)NC(=O)[C@H](CC(N)=O)NC(=O)[C@H](C)NC(=O)[C@H](C)NC(=O)[C@H](CCC(N)=O)NC(=O)[C@H](CCC(N)=O)NC(=O)[C@H](CCCCN)NC(=O)[C@H](CCC(=O)O)NC(=O)[C@H](CCCCN)NC(=O)[C@H](CCC(=O)O)NC(=O)[C@H](CCC(N)=O)NC(=O)[C@H](CCCCN)NC(=O)[C@H](CCC(=O)O)NC(=O)[C@@H](NC(=O)[C@H](CCC(=O)O)NC(=O)[C@@H](NC(=O)[C@H](CCSC)NC(=O)[C@H](CCCCN)NC(=O)[C@H](CCCN=C(N)N)NC(=O)[C@H](CC(C)C)NC(=O)[C@H](CC(C)C)NC(=O)[C@H](Cc1c[nH]c2ccccc12)NC(=O)[C@H](Cc1ccccc1)NC(=O)[C@@H]1CCCN1C(=O)[C@H](CC(C)C)NC(=O)[C@H](CC(=O)O)NC(=O)[C@@H](NC(=O)[C@H](CO)NC(=O)[C@@H](NC(=O)[C@@H]1CCCN1C(=O)[C@@H]1CCCN1C(=O)CNC(=O)[C@@H]1CCC(=O)N1)[C@@H](C)CC)[C@@H](C)CC)[C@@H](C)CC)[C@@H](C)CC)[C@@H](C)O)C(=O)O
4 nM	100%	187 nM	47	100%	CC[C@H](C)[C@H](NC(=O)[C@@H](NC(=O)[C@H](CC(=O)O)NC(=O)[C@H](CC(C)C)NC(=O)[C@H](CC(C)C)NC(=O)[C@H](CC(C)C)NC(=O)[C@H](CCCN=C(N)N)NC(=O)[C@H](CC(N)=O)NC(=O)[C@H](CC(N)=O)NC(=O)[C@H](C)NC(=O)[C@H](C)NC(=O)[C@H](CCC(N)=O)NC(=O)[C@H](CCC(N)=O)NC(=O)[C@H](CCCCN)NC(=O)[C@H](CCC(=O)O)NC(=O)[C@H](CCCCN)NC(=O)[C@H](CCC(=O)O)NC(=O)[C@H](CCC(N)=O)NC(=O)[C@H](CCCCN)NC(=O)[C@H](CCC(=O)O)NC(=O)[C@@H](NC(=O)[C@H](CCC(=O)O)NC(=O)[C@@H](NC(=O)[C@H](CCSC)NC(=O)[C@H](CCCCN)NC(=O)[C@H](CCCN=C(N)N)NC(=O)[C@H](CC(C)C)NC(=O)[C@H](CC(C)C)NC(=O)[C@H](Cc1c[nH]c2ccccc12)NC(=O)[C@H](Cc1ccc(O)cc1)NC(=O)[C@@H]1CCCN1C(=O)[C@H](CC(C)C)NC(=O)[C@H](CC(=O)O)NC(=O)[C@@H](NC(=O)[C@H](CO)NC(=O)[C@@H](NC(=O)[C@@H]1CCCN1C(=O)[C@@H]1CCCN1C(=O)CNC(=O)[C@@H]1CCC(=O)N1)[C@@H](C)CC)[C@@H](C)CC)[C@@H](C)CC)[C@@H](C)CC)[C@@H](C)O)C(=O)O
